Assay results published in US10787462B2, “Heterocyclic compound” (TAKEDA PHARMACEUTICAL COMPANY LIMITED, priority 2015, dated 2020).
Structures can show the parent of a compound that is named as a salt. Where two headings read alike, the source gives them in different places. One block for each compound: values may come before it.

Biological target: T1, human RIPK1 (1-375) (Homo sapiens, UniProt Q13546)
T1 construct: human RIPK1 (1-375) gene; GST; made in house; host or cells: Sf-9 insect cells
T1 sequence (Q13546 1-375): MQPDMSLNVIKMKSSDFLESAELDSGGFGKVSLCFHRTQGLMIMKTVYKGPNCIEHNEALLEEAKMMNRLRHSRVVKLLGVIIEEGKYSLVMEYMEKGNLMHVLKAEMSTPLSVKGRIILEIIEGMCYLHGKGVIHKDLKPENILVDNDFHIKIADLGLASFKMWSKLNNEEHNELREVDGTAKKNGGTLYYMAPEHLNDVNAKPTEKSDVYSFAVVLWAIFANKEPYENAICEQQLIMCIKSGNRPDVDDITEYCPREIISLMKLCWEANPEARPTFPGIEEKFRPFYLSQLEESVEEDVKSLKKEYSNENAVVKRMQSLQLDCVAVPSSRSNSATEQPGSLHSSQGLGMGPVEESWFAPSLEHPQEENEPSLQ
Test: Human RIPK1 enzyme inhibitory effect (ADP-Glo Kinase Assay)
Format: biochemical
Conditions: for human RIPK1 enzyme inhibitory effect at 10 μM (% inhibition): 10 μM test compound
Procedure, shortened: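 Human RIPK1 (1-375), GST-purified from Sf-9 cells, preincubated 20 min at room temperature with compound in 25 mM HEPES pH 7.5, 10 mM MgCl2, 0.01% Tween-20, 2 mM DTT. Reaction started with 0.6 mM ATP solution (stock), run 120 min at room temperature. ADP measured by ADP-Glo luminescence.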

[1] = well without enzyme = 100% inhibition, 10 µM
[2] = read-out: human RIPK1 enzyme inhibitory effect at 10 μM (% inhibition), 10 μM test compound, well without enzyme = 100% inhibition

Compound: CN1C(=O)[C@@H](N2CCc3cn(Cc4c(F)cccc4F)nc3C2=O)COc2ccccc21 [Example 24, (3S)-3-(2-(2,6-difluorobenzyl)-7-oxo-2,4,5,7-tetrahydro-6H-pyrazolo[3,4-]pyridin-6-yl)-5-methyl-2,3-dihydro-1,5-benzoxazepin-4(5H)-one]
- inhibition at 10 µM [2]: 101%

Compound: (3S)-7-chloro-3-(3-chloro-1-oxo- 2-(pyrazin-2-ylmethyl)-2,4,5,7- tetrahydro-6H-pyrazolo[3,4- c]pyridin-6-yl)-5-methyl-2,3- dihydro-1,5-benzoxazepin-4(5H)- one [Example 74]
- human RIPK1 enzyme inhibitory effect at 10 μM (% inhibition) (well without enzyme = 100% inhibition): 97%

Compound: CN1C(=O)[C@@H](N2CCc3cn(Cc4ccccc4F)nc3C2=O)COc2ccccc21 [Example 9, (3S)-3-(2-(2-fluorobenzyl)-7-oxo-2,4,5,7-tetrahydro-6H-pyrazolo[3,4-c]pyridin-6-yl)-5-methyl-2,3-dihydro-1,5-benzoxazepin-4(5H)-one]
- inhibition at 10 µM [2]: 100%

Compound: CN1C(=O)[C@@H](N2CCc3cn(CC4COCCO4)nc3C2=O)COc2ccccc21 (stereo partly drawn) [Example 38, (3S)-3-(2-(1,4-dioxan-2-ylmethyl)-7-oxo-2,4,5,7-tetrahydro-6H-pyrazolo[3,4-c]pyridin-6-yl)-5-methyl-2,3-dihydro-1,5-benzoxazepin-4(5H)-one]
- inhibition at 10 µM [2]: 96%

Compound: O=C1Nc2ccccc2CCC1N1CCc2cn(Cc3ccccc3)nc2C1=O (stereo not drawn) [Example 3, 3-(2-benzyl-7-oxo-2,4,5,7-tetrahydro-6H-pyrazolo[3,4-c]pyridin-6-yl)-1,3,4,5-tetrahydro-2H-1-benzazepin-2-one]
- inhibition at 10 µM [2]: 97%

Compound: Cc1ccccc1Cn1cc2c(n1)C(=O)N([C@H]1COc3ccccc3N(C)C1=O)CC2 [Example 22, (3S)-5-methyl-3-(2-(2-methylbenzyl)-7-oxo-2,4,5,7-tetrahydro-6 H-pyrazolo[3,4-c]pyridin-6-yl)-2,3-dihydro-1,5-benzoxazepin-4(5H)-one]
- inhibition at 10 µM [2]: 100%

Compound: O=C1Nc2ccccc2CCC1N1Cc2cn(Cc3ccccc3)nc2C1=O (stereo not drawn) [Example 4, 3-(2-benzyl-6-oxo-2,6-dihydropyrrolo[3,4-c]pyrazol-5(4H)-yl)-1,3,4,5-tetrahydro-2H-1-benzazepin-2-one]
- inhibition at 10 µM [2]: 80%

Compound: CN1C(=O)[C@@H](N2CCc3cn(Cc4ccccc4)nc3C2=O)COc2cc(Br)ccc21 [Example 41, (3S)-3-(2-benzyl-7-oxo-2,4,5,7-tetrahydro-6H-pyrazolo[3,4-c]pyridin-6-yl)-8-bromo-5-methyl-2,3-dihydro-1,5-benzoxazepin-4(5H)-one]
- inhibition at 10 µM [2]: 101%

Compound: CN1C(=O)[C@@H](N2CCc3sc(Cc4ccccc4)nc3C2=O)COc2ccccc21 [Example 16, (3S)-3-(2-benzyl-4-oxo-6,7-dihydro[1,3]thiazolo[4,5-c]pyridin-5(4H)-yl)-5-methyl-2,3-dihydro-1,5-benzoxazepin-4(5H)-one]
- inhibition at 10 µM [2]: 98%

Compound: CN1C(=O)[C@@H](N2CCc3cn(Cc4c(F)cccc4F)nc3C2=O)COc2cc(C#N)ccc21 [Example 45, (3S)-3-(2-(2,6-difluorobenzyl)-7-oxo-2,4,5,7-tetrahydro-6H-pyrazolo[3,4-c]pyridin-6-yl)-5-methyl-4-oxo-2,3,4,5-tetrahydro-1,5-benzoxazepine-8-carbonitrile]
- inhibition at 10 µM [2]: 101%

Compound: CN1C(=O)[C@@H](N2CCc3c(nn(Cc4ccccc4)c3C(N)=O)C2=O)COc2ccccc21 [Example 50, 2-benzyl-6-((3S)-5-methyl-4-oxo-2,3,4,5-tetrahydro-1,5-benzoxazepin-3-yl)-7-oxo-4,5,6,7-tetrahydro-2H-pyrazolo[3,4-c]pyridine-3-carboxamide]
- inhibition at 10 µM (read-out: human RIPK1 enzyme inhibitory effect at 10 μM (% inhibition)): 99%

Compound: CN1C(=O)[C@@H](N2CCc3cn(CC4CC4)nc3C2=O)COc2ccccc21 [Example 27, (3S)-3-(2-(cyclopropylmethyl)-7-oxo-2,4,5,7-hydro-6H-pyrazolo[3,4-c]pyridin-6-yl)-5-methyl-2,3-dihydro-1,5-benzoxazepin-4(5H)-one]
- inhibition at 10 µM [2]: 93%

Compound: CNC(=O)c1ccc2c(c1)OC[C@H](N1CCc3c(nn(Cc4ccccc4)c3Cl)C1=O)C(=O)N2C [Example 44, (3S)-3-(2-benzyl-3-chloro-7-oxo-2,4,5,7-tetrahydro-6H-pyrazolo[3,4-c]pyridin-6-yl)-N,5-dimethyl-4-oxo-2,3,4,5-tetrahydro-1,5-benzoxazepine-8-carboxamide]
- inhibition at 10 µM [2]: 100%

The remaining lines, values ahead:

- human RIPK1 enzyme inhibitory effect at 10 μM (% inhibition) [1]: 98%
Compound: CN1C(=O)C(N2CCc3c(nn(Cc4ccccc4F)c3Cl)C2=O)CCc2ccncc21 (stereo not drawn) [Example 97, 3-(3-chloro-2-(2-fluorobenzyl)-7-oxo-2,4,5,7-tetrahydro-6H-pyrazolo[3,4-c]pyridin-6-yl)-1-methyl-1,3,4,5-tetrahydro-2H-pyrido[3,4-b]azepin-2-one]

- inhibition at 10 µM [2]: 100%
Compound: CN(C)C(=O)c1ccc2c(c1)OC[C@H](N1CCc3c(nn(Cc4ccccc4)c3Cl)C1=O)C(=O)N2C [Example 87, (3S)-3-(2-benzyl-3-chloro-7-oxo-2,4,5,7-tetrahydro-6H-pyrazolo[3,4-c]pyridin-6-yl)-N,N,5-trimethyl-4-oxo-2,3,4,5-tetrahydro-1,5-benzoxazepine-8-carboxamide]

- human RIPK1 enzyme inhibitory effect at 10 μM (% inhibition) [1]: 100%
Compound: CN1C(=O)C(N2CCc3c(nn(Cc4ccccc4)c3Cl)C2=O)CCc2ncccc21 (stereo not drawn) [Example 66, 7-(2-benzyl-3-chloro-7-oxo-2,4,5,7-tetrahydro-6H-pyrazolo[3,4-c]pyridin-6-yl)-5-methyl-5,7,8,9-tetrahydro-6H-pyrido[3,2-b]azepin-6-one (optical isomer)]

- inhibition at 10 µM [2]: 99%
Compound: CN1C(=O)[C@@H](N2CCc3cn(Cc4cc(C#N)ccc4F)nc3C2=O)COc2ccccc21 [Example 172, 4-fluoro-3-((6-((3S)-5-methyl-4-oxo-2,3,4,5-tetrahydro-1,5-benzoxazepin-3-yl)-7-oxo-4,5,6,7-tetrahydro-2H-pyrazolo[3,4-c]pyridin-2-yl)methyl)benzonitrile]

- human RIPK1 enzyme inhibitory effect at 10 μM (% inhibition) [1]: 100%
Compound: CN1C(=O)C(N2CCc3c(nn(Cc4ccccc4)c3Cl)C2=O)CCc2c1cnn2C (stereo not drawn) [Example 127, 6-(2-benzyl-3-chloro-7-oxo-2,4,5,7-tetrahydro-6H-pyrazolo[3,4-c]pyridin-6-yl)-1,4-dimethyl-4,6,7,8-tetrahydropyrazolo[4,3-b]azepin-5(1H)-one]

- inhibition at 10 µM [2]: 101%
Compound: Cc1c2c(nn1Cc1ccccc1)C(=O)N([C@H]1COc3cc(Br)ccc3N(C)C1=O)CC2 [Example 84]

- inhibition at 10 µM [2]: 100%
Compound: CN1C(=O)[C@@H](N2CCc3cn(Cc4ccc(Cl)cc4F)nc3C2=O)COc2ccccc21 [Example 168, (3S)-3-(2-(4-chloro-2-fluorobenzyl)-7-oxo-2,4,5,7-tetrahydro-6H-pyrazolo[3,4-c]pyridin-6-yl)-5-methyl-2,3-dihydro-1,5-benzoxazepin-4(5H)-one]

- inhibition at 10 µM [2]: 98%
Compound: CN1C(=O)C(N2CCc3c(nn(Cc4ccccc4)c3Cl)C2=O)CCc2cnccc21 (stereo not drawn) [Example 98, 3-(2-benzyl-3-chloro-7-oxo-2,4,5,7-tetrahydro-6H-pyrazolo[3,4-c]pyridin-6-yl)-1-methyl-1,3,4,5-tetrahydro-2H-pyrido[4,3-b]azepin-2-one]

- human RIPK1 enzyme inhibitory effect at 10 μM (% inhibition) [1]: 95%
Compound: CN1C(=O)C(N2CCc3c(nn(Cc4ccccc4F)c3Cl)C2=O)CCc2ccncc21 (stereo not drawn) [Example 104, 3-(3-chloro-2-(2-fluorobenzyl)-7-oxo-2,4,5,7-tetrahydro-6H-pyrazolo[3,4-c]pyridin-6-yl)-1-methyl-1,3,4,5-tetrahydro-2H-pyrido[3,4-b]azepin-2-one]

- inhibition at 10 µM [2]: 97%
Compound: CN1C(=O)[C@@H](N2CCc3cn(Cc4cccc(F)c4)nc3C2=O)CSc2ccccc21 [Example 156, (3R)-3-(2-(3-fluorobenzyl)-7-oxo-2,4,5,7-tetrahydro-6H-pyrazolo[3,4-c]pyridin-6-yl)-5-methyl-2,3-dihydro-1,5-benzothiazepin-4(5H)-one]

- human RIPK1 enzyme inhibitory effect at 10 μM (% inhibition) [1]: 95%
Compound: CN1C(=O)C(N2CCc3c(nn(Cc4ccccc4F)c3Cl)C2=O)CCc2cnccc21 (stereo not drawn) [Example 106, 3-(3-chloro-2-(2-fluorobenzyl)-7-oxo-2,4,5,7-tetrahydro-6H-pyrazolo[3,4-c]pyridin-6-yl)-1-methyl-1,3,4,5-tetrahydro-2H-pyrido[4,3-b]azepin-2-one]

- inhibition at 10 µM [2]: 96%
Compound: CN1C(=O)[C@@H](N2CCc3[nH]c(Cc4ccccc4)nc3C2=O)COc2ccccc21 [Example 55, (3S)-3-(2-benzyl-4-oxo-1,4,6,7-tetrahydro-5H-imidazo[4,5-c]pyridin-5-yl)-5-methyl-2,3-dihydro-1,5-benzoxazepin-4(5H)-one trifluoroacetate]

- inhibition at 10 µM [2]: 88%
Compound: CN1C(=O)[C@@H](N2CCc3cn(CC4CCOC4)nc3C2=O)COc2ccccc21 (stereo partly drawn) [Example 171, (3S)-5-methyl-3-(7-oxo-2-(tetrahydrofuran-3-ylmethyl)-2,4,5,7-tetrahydro-6H-pyrazolo[3,4-c]pyridin-6-yl)-2,3-dihydro-1,5-benzoxazepin-4(5H)-one]

- inhibition at 10 µM [2]: 100%
Compound: CN1C(=O)[C@@H](N2CCc3c(nn(Cc4ccccc4)c3Cl)C2=O)COc2cc(N3CCOCC3)ccc21 [Example 142, (3S)-3-(2-benzyl-3-chloro-7-oxo-2,4,5,7-tetrahydro-6H-pyrazolo[3,4-c]pyridin-6-yl)-5-methyl-8-(morpholin-4-yl)-2,3-dihydro-1,5-benzoxazepin-4(5H)-one]
